Patent US9580449B2, “Compositions and methods for the production of pyrimidine and pyridine compounds with BTK inhibitory activity” (Merck Patent GmbH, priority 2011, dated 2017)

These compounds were tested against full-length human BTK (Homo sapiens (Human), UniProt Q06187) (assay: BTK IC50 enzyme assay (microfluidic off-chip mobility shift kinase assay)). Conditions: incubated for 90 min. at 27 C; read-out: Time Dependent BTK Enzyme Assay IC50.
full-length human BTK, sequence (Q06187 whole entry): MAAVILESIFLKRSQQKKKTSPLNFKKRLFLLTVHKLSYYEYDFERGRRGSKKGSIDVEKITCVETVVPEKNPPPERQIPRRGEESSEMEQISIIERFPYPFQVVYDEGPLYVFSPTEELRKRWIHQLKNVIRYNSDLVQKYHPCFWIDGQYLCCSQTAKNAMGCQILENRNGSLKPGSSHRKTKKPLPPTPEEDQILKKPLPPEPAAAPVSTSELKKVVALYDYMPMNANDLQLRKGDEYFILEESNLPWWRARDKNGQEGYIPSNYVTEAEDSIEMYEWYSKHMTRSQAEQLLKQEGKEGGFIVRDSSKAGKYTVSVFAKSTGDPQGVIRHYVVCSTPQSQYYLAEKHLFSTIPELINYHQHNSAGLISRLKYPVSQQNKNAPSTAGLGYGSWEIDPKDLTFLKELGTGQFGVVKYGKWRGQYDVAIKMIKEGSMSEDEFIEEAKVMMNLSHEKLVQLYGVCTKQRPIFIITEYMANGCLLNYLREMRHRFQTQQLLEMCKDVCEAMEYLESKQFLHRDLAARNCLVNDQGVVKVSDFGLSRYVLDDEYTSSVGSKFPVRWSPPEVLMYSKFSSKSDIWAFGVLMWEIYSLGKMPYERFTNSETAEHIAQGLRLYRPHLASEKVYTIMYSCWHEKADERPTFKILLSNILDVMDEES
Type: biochemical
Method: The following describes a microfluidic, off-chip mobility shift kinase assay used to measure inherent potency of compounds against BTK enzyme. Compounds described by embodiments of the present invention were assayed using this protocol and the data from the same is recorded in Table 2 within the column labeled: “Time Dependent BTK Enzyme Assay IC50”.
Stopped reactions were monitored at −2 PSI, −3000 V/−700 V in a LabChip 3000 plate reader from Caliper Life Sciences, a PerkinElmer Company (Hopkinton, Mass.), and the activity was measured by off-chip mobility shift assay measuring the charge/mass difference between substrate and product resulting from peptide phosphorylation. IC50 and efficacy were determined by plotting log [Inhibitor] vs. % Activity in GeneData Screener (Basel, Switzerland). […] I<1 uM and II>1 uM.
C=CC(=O)N1CCO[C@H](COc2ncnc(N)c2-c2ccc(Oc3ccccc3)cc2)C1 [A65, (S)-1-(2-(((6-amino-5-(4-phenoxyphenyl)pyrimidin-4-yl)oxy)methyl)morpholino)prop-2-en-1-one] gave an IC50 of less than 100 nM. CN(C)C/C=C/C(=O)N1CC[C@@H](Nc2ncnc(N)c2-c2ccc(Oc3ccccc3)cc2)C1 [A73, (R,E)-1-(3-((6-amino-5-(4-phenoxyphenyl)pyrimidin-4-yl)amino)pyrrolidin-1-yl)-4-(dimethylamino)but-2-en-1-one] gave an IC50 of less than 1000 nM. C=CC(=O)N1CCCC(CNc2ncnc(N)c2-c2ccc(Oc3ccccc3)cc2)C1 (stereo not drawn) [A286, 1-(3-(((6-amino-5-(4-phenoxyphenyl)pyrimidin-4-yl)amino)methyl)piperidin-1-yl)prop-2-en-1-one] was tested, and the IC50 was less than 1000 nM. In the case of CC=CC(=O)[C@H]1CCC[C@H](Nc2ncnc(N)c2-c2ccc(Oc3ccccc3)cc2)C1 [A144, 1-((1S,3S)-3-(6-Amino-5-(4-phenoxyphenyl)-pyrimidin-4-ylamino)-cyclohexyl)-but-2-en-1-one], the IC50 is reported as less than 100 nM. For C=CC(=O)NC1CC(CNc2ncnc(N)c2-c2ccc(Oc3ccccc3)cc2)C1 (stereo not drawn) [A182, N-(3-(((6-amino-5-(4-phenoxyphenyl)pyrimidin-4-yl)amino)methyl)cyclobutyl)acrylamide], the IC50 was less than 100 nM. CCC(=O)Nc1cccc(Oc2ncnc(N)c2-c2ccc(Oc3ccccc3)cc2)c1 [A326, N-(3-((6-amino-5-(4-phenoxyphenyl)pyrimidin-4-yl)oxy)phenyl)propionamide] gave an IC50 greater than 1000 nM. Nc1ncnc(Oc2cccc(NC(=O)CCl)c2)c1-c1ccc(Oc2ccccc2)cc1 [A342, N-{3-[6-Amino-5-(4-phenoxy-phenyl)-pyrimidin-4-yloxy]-phenyl}-2-chloroacetamide] showed an IC50 of less than 100 nM. In the case of CN(C)C/C=C/C(=O)N1CCC(CNc2ncnc(N)c2-c2ccc(Oc3ccccc3)cc2)(C(=O)O)CC1 [A217, (E)-4-(((6-amino-5-(4-phenoxyphenyl)pyrimidin-4-yl)amino)methyl)-1-(4-(dimethylamino)but-2-enoyl)piperidine-4-carboxylic acid], the IC50 is reported as less than 1000 nM. C=CC(=O)N1CCC(COc2ncnc(N)c2-c2ccc(Oc3ccccc3)cc2)CC1 [A338, 1-(4-(((6-amino-5-(4-phenoxyphenyl)pyrimidin-4-yl)oxy)methyl)piperidin-1-yl)prop-2-en-1-one] showed an IC50 of less than 1000 nM. C=CC(=O)N1CCC(CNc2ncnc(N)c2-c2ccc(Oc3cccnc3)cc2)CC1 [A96, 1-(4-(((6-amino-5-(4-(pyridin-3-yloxy)phenyl)pyrimidin-4-yl)amino)methyl)piperidin-1-yl)prop-2-en-1-one] was tested, and the IC50 was less than 1000 nM. Compound C=CC(=O)N1CC2(CC(Oc3ncnc(N)c3-c3ccc(Oc4ccc(C#N)cc4)cc3)C2)C1 [A202, 4-(4-(4-((2-acryloyl-2-azaspiro[3.3]heptan-6-yl)oxy)-6-aminopyrimidin-5-yl)phenoxy)benzonitrile] has an IC50 of less than 100 nM. For C=CC(=O)N1CCC(CNc2ccnc(N)c2-c2ccc(Oc3ccccc3)cc2)CC1 [A76, 1-(4-(((2-amino-3-(4-phenoxyphenyl)pyridin-4-yl)amino)methyl)piperidin-1-yl)prop-2-en-1-one], the IC50 was less than 1000 nM. C#CC(=O)N1CC2(CC(Nc3ncnc(N)c3-c3cnn(Cc4ccccc4)c3)C2)C1 [A111, 1-(6-((6-amino-5-(1-benzyl-1H-pyrazol-4-yl)pyrimidin-4-yl)amino)-2-azaspiro[3.3]heptan-2-yl)prop-2-yn-1-one] was tested, and the IC50 was less than 100 nM. With C/C=C/C(=O)NCc1cccc(-c2cnccc2Oc2ccc(Oc3ccccc3)cc2)c1 [A327, (E)-N-(3-(4-(4-phenoxyphenoxy)pyridin-3-yl)benzyl)but-2-enamide] the IC50 was greater than 1000 nM. N#CC1(C(=O)Nc2cccc(Oc3ncnc(N)c3-c3ccc(Oc4ccccc4)cc3)c2)CC1 [A329, N-(3-((6-amino-5-(4-phenoxyphenyl)pyrimidin-4-yl)oxy)phenyl)-1-cyanocyclopropanecarboxamide] showed an IC50 greater than 1000 nM.
